Source: patent US8999957B2, “Heterocyclic compounds as ERK inhibitors” (Merck Sharp & Dohme Corp., priority 2010, dated 2015)

What follows are compounds tested against fully phosphorylated, active Mouse ERK2 protein (Mus musculus (Mouse), UniProt P63085) (assay: Active ERK2 (aERK) IMAP assay, condition 1). Conditions: aERK assay condition 1, 30 μM ATP.
Chain of fully phosphorylated, active Mouse ERK2 protein (P63085 whole entry): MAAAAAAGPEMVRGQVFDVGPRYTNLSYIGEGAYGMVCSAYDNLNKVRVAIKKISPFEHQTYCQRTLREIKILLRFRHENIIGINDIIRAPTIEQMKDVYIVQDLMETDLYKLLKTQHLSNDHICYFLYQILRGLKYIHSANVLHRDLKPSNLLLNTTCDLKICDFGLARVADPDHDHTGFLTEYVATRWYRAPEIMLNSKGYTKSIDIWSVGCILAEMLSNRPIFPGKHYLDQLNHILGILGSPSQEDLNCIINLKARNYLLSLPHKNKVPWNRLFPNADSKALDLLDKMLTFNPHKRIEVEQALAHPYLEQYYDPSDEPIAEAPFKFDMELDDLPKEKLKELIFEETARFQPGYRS
Assay type: biochemical
Description: Active ERK2 (aERK) Assay: (Unless Indicated Otherwise, the Data Provided for aERK was obtained using Condition 1)
Activated ERK2 activity was also determined in the IMAP assay format using the procedure outlined above. […] Reactions proceeded for 30 minutes before termination by addition of 60 μl IMAP detection beads in binding buffer. Plates were read as above after 30 minute binding equilibration.
`O=C(N[C@@H]1CCCN(Cc2ccccc2C(F)(F)F)C1)c1ccc2[nH]nc(-c3ccc4c(c3)CCO4)c2c1` showed an IC50 of 1000 nM.
`N#Cc1cccc(CN2CCC[C@@H](NC(=O)c3ccc4[nH]nc(-c5ccc6c(c5)CCO6)c4c3)C2)c1` gave an IC50 of 999 nM.
`O=C(N[C@@H]1CCCN(Cc2c(F)cccc2F)C1)c1ccc2[nH]nc(-c3ccc4c(c3)CCO4)c2c1` showed an IC50 of 173 nM.
With `O=C(N[C@@H]1CCCN(Cc2ccc3occc3c2)C1)c1ccc2[nH]nc(-c3ccc4c(c3)CCO4)c2c1` the IC50 was 22.9 nM.
With `O=C(N[C@@H]1CNCC[C@H]1c1ccccc1)c1ccc2[nH]nc(-c3ccc4c(c3)CCO4)c2c1` the IC50 was 23 nM.
Work on `CN1CC[C@@H](c2ccccc2)[C@H](NC(=O)c2ccc3[nH]nc(-c4ccc5c(c4)CCO5)c3c2)C1` yielded an IC50 of 118 nM.
`O=C(N[C@@H]1CNCC[C@H]1c1ccccc1)c1ccc2[nH]nc(-c3ccc4c(c3)OCO4)c2c1` gave an IC50 of 27.1 nM.
For `O=C(N[C@@H]1CNCC[C@H]1c1ccccc1)c1ccc2[nH]nc(-c3ccc4[nH]c(=O)[nH]c4c3)c2c1`, the IC50 was 50.1 nM.
In the case of `CC(C)Oc1ccc(-c2n[nH]c3ccc(C(=O)N[C@@H]4CNCC[C@H]4c4ccccc4)cc23)cc1`, the IC50 is reported as 49.9 nM.
`CCN1CC[C@@H](c2ccccc2)[C@H](NC(=O)c2ccc3[nH]nc(-c4ccc(OC(C)C)cc4)c3c2)C1` gave an IC50 of 650 nM.
`CC(C)Oc1ccc(-c2n[nH]c3ccc(C(=O)N[C@@H]4CN(C)CC[C@H]4c4ccccc4)cc23)cc1` showed an IC50 of 300 nM.
`CC(C)Oc1ccc(-c2n[nH]c3ccc(C(=O)N[C@@H]4CNCC[C@H]4c4ccccc4)cc23)cn1` showed an IC50 of 84.9 nM.
In the case of `CC(C)Oc1ccc(-c2n[nH]c3ccc(C(=O)N[C@@H]4CN(C)CC[C@H]4c4ccccc4)cc23)cn1`, the IC50 is reported as 300 nM.
Work on `CCN1CC[C@@H](c2ccccc2)[C@H](NC(=O)c2ccc3[nH]nc(-c4ccc(OC(C)C)nc4)c3c2)C1` yielded an IC50 of 300 nM.
Compound `[2H]C([2H])([2H])N1CC[C@@H](c2ccccc2)[C@H](NC(=O)c2ccc3[nH]nc(-c4ccc(OC(C)C)cc4)c3c2)C1` has an IC50 of 300 nM.
For `CC(C)(C)OC(=O)N1CC[C@@H](c2ccccc2)[C@H](NC(=O)c2ccc3[nH]nc(-c4ccc5c(c4)CCO5)c3c2)C1`, the IC50 was 300 nM.
For `O=C(N[C@@H]1CNCC[C@H]1c1ccccc1)c1ccc2[nH]nc(-c3ccc4[nH]ncc4c3)c2c1`, the IC50 was 13.7 nM.
In the case of `CC(C)Oc1cc(-c2n[nH]c3ccc(C(=O)N[C@@H]4CNCC[C@H]4c4ccccc4)cc23)ccn1`, the IC50 is reported as 141 nM.
`O=C(N[C@@H]1CCCN(c2ccccc2F)C1)c1ccc2[nH]nc(-c3ccncc3)c2c1` was tested, and the IC50 was 62.3 nM.
`COc1cccc(F)c1CN1C[C@H](NC(=O)c2ccc3[nH]nc(-c4ccc5nccn5c4)c3c2)CCC1=O` gave an IC50 of 69.2 nM.
Work on `O=C(NC12CC1CCN(Cc1ccccc1)C2)c1ccc2[nH]nc(-c3ccc4nccn4c3)c2c1` (centres unmarked) yielded an IC50 of 200 nM.
For `CN(C)C(=O)[C@@H]1CC[C@@H](NC(=O)c2ccc3[nH]nc(-c4ccncc4)c3c2)CN1Cc1ccccc1`, the IC50 was 51.3 nM.
`COc1ccccc1CCN1CCCCC(NC(=O)c2ccc3[nH]nc(-c4ccncc4)c3c2)C1` (centres unmarked) was tested, and the IC50 was 31.1 nM.
With `CC(C)C(NC(=O)[C@@H]1CC[C@@H](NC(=O)c2ccc3[nH]nc(-c4ccncc4)c3c2)CN1Cc1ccccc1)C(C)C` the IC50 was 262 nM.
With `O=C(NC1CCCCN(CC2CCc3ccccc32)C1)c1ccc2[nH]nc(-c3ccncc3)c2c1` (centres unmarked) the IC50 was 85.4 nM.
`O=C(N[C@@H]1CC[C@H](C(=O)NCc2ccccc2)NC1)c1ccc2[nH]nc(-c3ccncc3)c2c1` gave an IC50 of 371 nM.
With `O=C(N[C@@H]1CC[C@@H](C(=O)NCc2ccccc2)NC1)c1ccc2[nH]nc(-c3ccncc3)c2c1` the IC50 was 120 nM.
In the case of `COc1cccc(F)c1CN1C[C@@H](C)C[C@@H](NC(=O)c2ccc3[nH]nc(-c4ccc5nc(C)sc5c4)c3c2)C1`, the IC50 is reported as 3.67 nM.
`COc1cccc(F)c1CN1C[C@H](NC(=O)c2ccc3[nH]nc(-c4ccc5nccn5c4)c3c2)CC(F)(F)C1` was tested, and the IC50 was 23.9 nM.
`O=C(N[C@H]1CN(Cc2c(F)cccc2F)CC(F)(F)C1)c1ccc2[nH]nc(-c3ccc4nccn4c3)c2c1` gave an IC50 of 234 nM.
With `O=C(NC12CC1CCN(Cc1c(F)cccc1F)C2)c1ccc2[nH]nc(-c3ccc4nccn4c3)c2c1` (centres unmarked) the IC50 was 136 nM.
For `COc1cccc(F)c1CN1CCC2CC2(NC(=O)c2ccc3[nH]nc(-c4ccc5nccn5c4)c3c2)C1` (centres unmarked), the IC50 was 86 nM.
